Results: patent publication US20230085307A1, “PYRIDAZINONE COMPOUND AND HERBICIDE” (NISSAN CHEMICAL CORPORATION, priority 2019, published 2023)

What was measured:
late watergrass [1] = experiment: Test Example 1: herbicidal activity, application before weed generation under submerged conditions (Table 16, symbol A); type: in vivo, late watergrass (Echinochloa oryzicola); settings: amount of applied herbicide 320 g/ha
How it was run: (§1)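 Emulsion formulation, water-diluted to set dose, was put onto the flooded surface (4 cm depth, alluvial soil) the same day weeds were sown and 2.5-leaf rice transplanted. After 3 weeks at 25-30 °C under glass, each species was rated 0 (≤5% kill) to 5 (≥90% kill).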

oval-leafed pondweed = experiment: Test Example 2: herbicidal activity, application during weed generation under submerged conditions (Table 17, symbol C); type: in vivo, oval-leafed pondweed (Monochoria vaginalis); settings: AAH 320 g/ha; application during weed generation, submerged conditions
How it was run: (§2)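 Alluvial soil in Wagner pots was flooded to 4 cm depth and sown with the three weeds together; pots were kept in a greenhouse at 25° C. to 30° C. At the one to two leaf stage, an emulsion formulation diluted in water to a set rate went onto the water surface; scored three weeks later.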

chickweed [2] = experiment: Test Example 4: herbicidal effect by soil treatment (Table 19, symbol P); type: in vivo, common chickweed (Stellaria media); settings: amount of applied herbicide 320 g/ha
How it was run: (§3)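 Step 1: sow seeds in sterilized diluvial soil, cover ~1.5 cm. Step 2: spray diluted emulsion onto soil surface at predetermined rate. Step 3: greenhouse, 25–30° C, three weeks. Step 4: grade effect on each plant by earlier criteria.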

green foxtail = experiment: Test Example 5: herbicidal effect by foliage application, plastic box (Table 20, symbol G); type: in vivo, green foxtail (Setaria viridis); settings: foliage application, 320 g/ha, three weeks after application
How it was run: (§4)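 Foliar spray test: emulsion formulation diluted in water to a set application rate, sprayed onto 14-day-old plants raised in diluvial soil at 25° C to 30° C under glass. Both herbicidal effect and crop effect rated visually three weeks later.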

windgrass [3] = experiment: Test Example 5: herbicidal effect by foliage application, plastic box (Table 20, symbol L); type: in vivo, windgrass (Apera spica-venti); settings: foliage application, 320 g/ha, three weeks after application
How it was run: as §4

barnyard grass [4] = experiment: Test Example 4: herbicidal effect by soil treatment (Table 19, symbol H); type: in vivo, barnyard grass (Echinochloa crus-galli); settings: amount of applied herbicide 320 g/ha
How it was run: as §3

Japanese bulrush = experiment: Test Example 1: herbicidal activity, application before weed generation under submerged conditions (Table 16, symbol B); type: in vivo, Japanese bulrush (Schoenoplectus juncoides); settings: amount of applied herbicide 320 g/ha
How it was run: as §1

persian speedwell [5] = experiment: Test Example 4: herbicidal effect by soil treatment (Table 19, symbol R); type: in vivo, Persian speedwell (Veronica persica); settings: amount of applied herbicide 320 g/ha
How it was run: as §3

barnyard grass [6] = experiment: Test Example 3: herbicidal effect by foliage application, Wagner pot (Table 18, symbol H); type: in vivo, barnyard grass (Echinochloa crus-galli); settings: 320 g/ha
How it was run: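 Plants were sown in alluvial soil held under 0.1–0.5 cm standing water and grown 14 days in a greenhouse at 25–30 °C. An emulsifiable formulation, water-diluted to the set dose, was then sprayed onto the foliage, and effects were scored three weeks later using previously defined criteria.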

redroot pigweed = experiment: Test Example 5: herbicidal effect by foliage application, plastic box (Table 20, symbol N); type: in vivo, redroot pigweed (Amaranthus retroflexus); settings: foliage application, 320 g/ha, three weeks after application
How it was run: as §4

velvetleaf = experiment: Test Example 4: herbicidal effect by soil treatment (Table 19, symbol M); type: in vivo, velvetleaf (Abutilon theophrasti); settings: amount of applied herbicide 320 g/ha
How it was run: as §3

chickweed [7] = experiment: Test Example 5: herbicidal effect by foliage application, plastic box (Table 20, symbol P); type: in vivo, common chickweed (Stellaria media); settings: foliage application, 320 g/ha, three weeks after application
How it was run: as §4

lambsquarters = experiment: Test Example 4: herbicidal effect by soil treatment (Table 19, symbol O); type: in vivo, lambsquarters (Chenopodium album); settings: amount of applied herbicide 320 g/ha
How it was run: as §3

persian speedwell [8] = experiment: Test Example 5: herbicidal effect by foliage application, plastic box (Table 20, symbol R); type: in vivo, Persian speedwell (Veronica persica); settings: foliage application, 320 g/ha, three weeks after application
How it was run: as §4

windgrass [9] = experiment: Test Example 4: herbicidal effect by soil treatment (Table 19, symbol L); type: in vivo, windgrass (Apera spica-venti); settings: amount of applied herbicide 320 g/ha
How it was run: as §3

Italian ryegrass = experiment: Test Example 4: herbicidal effect by soil treatment (Table 19, symbol K); type: in vivo, Italian ryegrass (Lolium multiflorum); settings: amount of applied herbicide 320 g/ha
How it was run: as §3

late watergrass [10] = experiment: Test Example 2: herbicidal activity, application during weed generation under submerged conditions (Table 17, symbol A); type: in vivo, late watergrass (Echinochloa oryzicola); settings: AAH 320 g/ha; application during weed generation, submerged conditions
How it was run: as §2

COc1ccccc1-c1sc2cc(OC3CCCC3)ccc2c1-c1c(O)c(C)nn(C)c1=O [3-109]
Herbicidal effect, A: late watergrass (late watergrass [1]): 5 (Herbicidal rate of 90% or more (almost completely withered)) | herbicidal effect rating, C: oval-leafed pondweed (oval-leafed pondweed): 2 (Herbicidal rate of 20% or more and less than 40%) | P: chickweed, herbicidal effect grade (chickweed [2]): 1 (Herbicidal rate of 5% or more and less than 20%) | G: green foxtail, herbicidal effect grade (green foxtail): 5 (Herbicidal rate of 90% or more (almost completely withered)) | L: windgrass, herbicidal effect grade (windgrass [3]): 4 (Herbicidal rate of 70% or more and less than 90%) | H: barnyard grass, herbicidal effect grade (barnyard grass [4]): 1 (Herbicidal rate of 5% or more and less than 20%) | Herbicidal effect, B: Japanese bulrush (Japanese bulrush): 5 (Herbicidal rate of 90% or more (almost completely withered)) | R: persian speedwell, herbicidal effect grade (persian speedwell [5]): 4 (Herbicidal rate of 70% or more and less than 90%) | herbicidal effect on barnyard grass (H) (barnyard grass [6]): 3 (Herbicidal rate of 40% or more and less than 70%) | N: redroot pigweed, herbicidal effect grade (redroot pigweed): 5 (Herbicidal rate of 90% or more (almost completely withered)) | M: velvetleaf, herbicidal effect grade (velvetleaf): 5 (Herbicidal rate of 90% or more (almost completely withered)) | P: chickweed, herbicidal effect grade (chickweed [7]): 5 (Herbicidal rate of 90% or more (almost completely withered)) | O: lambsquarters, herbicidal effect grade (lambsquarters): 5 (Herbicidal rate of 90% or more (almost completely withered)) | R: persian speedwell, herbicidal effect grade (persian speedwell [8]): 5 (Herbicidal rate of 90% or more (almost completely withered)) | L: windgrass, herbicidal effect grade (windgrass [9]): 0 (Herbicidal rate of 5% or less (almost no effect)) | K: Italian ryegrass, herbicidal effect grade (Italian ryegrass): 4 (Herbicidal rate of 70% or more and less than 90%) | herbicidal effect rating, A: late watergrass (late watergrass [10]): 0 (Herbicidal rate of 5% or less (almost no effect))

CCCC(=O)Oc1c(C)nn(C)c(=O)c1-c1c(-c2ccc(OC)cc2)sc2cc(OCC)ccc12 [3-092]
Herbicidal effect, A: late watergrass (late watergrass [1]): 0 (Herbicidal rate of 5% or less (almost no effect)) | herbicidal effect rating, C: oval-leafed pondweed (oval-leafed pondweed): 3 (Herbicidal rate of 40% or more and less than 70%) | P: chickweed, herbicidal effect grade (chickweed [2]): 5 (Herbicidal rate of 90% or more (almost completely withered)) | G: green foxtail, herbicidal effect grade (green foxtail): 0 (Herbicidal rate of 5% or less (almost no effect)) | L: windgrass, herbicidal effect grade (windgrass [3]): 0 (Herbicidal rate of 5% or less (almost no effect)) | H: barnyard grass, herbicidal effect grade (barnyard grass [4]): 0 (Herbicidal rate of 5% or less (almost no effect)) | Herbicidal effect, B: Japanese bulrush (Japanese bulrush): 3 (Herbicidal rate of 40% or more and less than 70%) | R: persian speedwell, herbicidal effect grade (persian speedwell [5]): 5 (Herbicidal rate of 90% or more (almost completely withered)) | herbicidal effect on barnyard grass (H) (barnyard grass [6]): 0 (Herbicidal rate of 5% or less (almost no effect)) | N: redroot pigweed, herbicidal effect grade (redroot pigweed): 5 (Herbicidal rate of 90% or more (almost completely withered)) | M: velvetleaf, herbicidal effect grade (velvetleaf): 0 (Herbicidal rate of 5% or less (almost no effect)) | P: chickweed, herbicidal effect grade (chickweed [7]): 5 (Herbicidal rate of 90% or more (almost completely withered)) | O: lambsquarters, herbicidal effect grade (lambsquarters): 4 (Herbicidal rate of 70% or more and less than 90%) | R: persian speedwell, herbicidal effect grade (persian speedwell [8]): 5 (Herbicidal rate of 90% or more (almost completely withered)) | L: windgrass, herbicidal effect grade (windgrass [9]): 0 (Herbicidal rate of 5% or less (almost no effect)) | K: Italian ryegrass, herbicidal effect grade (Italian ryegrass): 0 (Herbicidal rate of 5% or less (almost no effect)) | herbicidal effect rating, A: late watergrass (late watergrass [10]): 0 (Herbicidal rate of 5% or less (almost no effect))
